Reference: BindingDB's records for doi:10.1016/j.chembiol.2014.12.015 (University of Florida College of Medicine, 2015)

Key:
Experiment in all cases: HDAC Activity Assays
[1] = biological target: Histone deacetylase 1/Nuclear receptor corepressor 2 [395-498] (Homo sapiens, UniProt Q13547)
Protocol: (§1) The enzyme activities were initially tested in a serial dilution of each HDAC using the HDAC-Glo I/II reagents (Promega) according to the manufacturer s protocol. Luminescence was detected using the BMG POLARstar Omega microplate reader. A concentration of each HDAC within the linear response region was used for assaying inhibition of HDAC activity by UF010 and analogs. Each compound was tested in 10-point dose-response assay in triplicate.

[2] = biological target: Histone deacetylase 2/Nuclear receptor corepressor 2 [395-498] (Homo sapiens, UniProt Q92769)
Protocol: as §1

[3] = biological target: Histone deacetylase 3/Nuclear receptor corepressor 2 [395-498] (Homo sapiens, UniProt O15379)
Protocol: as §1

Histone deacetylase 6 = biological target: T1, Histone deacetylase 6 (Homo sapiens, UniProt Q9UBN7)
T1 sequence (Q9UBN7 whole entry): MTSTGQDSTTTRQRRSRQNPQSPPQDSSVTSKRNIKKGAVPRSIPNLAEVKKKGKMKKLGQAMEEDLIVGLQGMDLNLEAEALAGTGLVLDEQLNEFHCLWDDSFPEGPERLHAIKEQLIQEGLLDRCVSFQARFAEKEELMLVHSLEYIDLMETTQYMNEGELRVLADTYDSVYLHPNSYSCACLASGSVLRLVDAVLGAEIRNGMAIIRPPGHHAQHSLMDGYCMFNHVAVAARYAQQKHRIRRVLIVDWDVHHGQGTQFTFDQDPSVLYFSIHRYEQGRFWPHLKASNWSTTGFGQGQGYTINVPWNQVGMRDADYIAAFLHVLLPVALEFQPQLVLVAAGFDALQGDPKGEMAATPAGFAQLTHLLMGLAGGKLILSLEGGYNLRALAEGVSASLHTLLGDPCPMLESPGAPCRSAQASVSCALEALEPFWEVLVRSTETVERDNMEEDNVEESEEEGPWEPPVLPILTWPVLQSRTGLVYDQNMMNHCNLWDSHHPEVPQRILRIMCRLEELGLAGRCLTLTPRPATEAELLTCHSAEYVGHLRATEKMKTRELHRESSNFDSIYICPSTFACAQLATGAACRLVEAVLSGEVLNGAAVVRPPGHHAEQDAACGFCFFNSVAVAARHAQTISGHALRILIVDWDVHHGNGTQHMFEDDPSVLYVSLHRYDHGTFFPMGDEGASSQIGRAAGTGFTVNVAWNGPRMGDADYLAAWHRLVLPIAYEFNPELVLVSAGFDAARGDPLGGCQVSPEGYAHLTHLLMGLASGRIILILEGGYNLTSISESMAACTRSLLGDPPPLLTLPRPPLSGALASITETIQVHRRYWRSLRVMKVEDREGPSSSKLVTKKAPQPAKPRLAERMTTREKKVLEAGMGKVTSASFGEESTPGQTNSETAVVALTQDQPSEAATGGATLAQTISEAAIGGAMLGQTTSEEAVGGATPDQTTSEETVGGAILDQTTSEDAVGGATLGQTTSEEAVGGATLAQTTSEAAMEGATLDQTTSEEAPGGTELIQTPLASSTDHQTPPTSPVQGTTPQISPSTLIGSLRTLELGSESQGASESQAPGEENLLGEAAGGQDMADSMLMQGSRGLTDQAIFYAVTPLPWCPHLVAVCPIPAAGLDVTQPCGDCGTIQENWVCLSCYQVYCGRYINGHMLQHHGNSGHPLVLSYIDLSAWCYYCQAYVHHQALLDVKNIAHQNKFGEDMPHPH
Protocol: as §1

Histone deacetylase 8 = biological target: T2, Histone deacetylase 8 (Homo sapiens, UniProt Q9BY41)
T2 sequence (Q9BY41 whole entry): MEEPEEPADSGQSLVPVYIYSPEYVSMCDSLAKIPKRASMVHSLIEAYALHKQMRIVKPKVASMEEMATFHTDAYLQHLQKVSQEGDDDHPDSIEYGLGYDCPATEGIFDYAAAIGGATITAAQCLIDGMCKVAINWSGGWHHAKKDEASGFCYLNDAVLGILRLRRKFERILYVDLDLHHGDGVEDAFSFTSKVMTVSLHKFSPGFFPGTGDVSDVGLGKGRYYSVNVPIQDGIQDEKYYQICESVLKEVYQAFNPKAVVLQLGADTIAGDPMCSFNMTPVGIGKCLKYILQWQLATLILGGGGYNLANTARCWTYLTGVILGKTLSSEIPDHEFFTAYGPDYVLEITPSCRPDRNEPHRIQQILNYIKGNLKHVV
Protocol: as §1

Chain of Histone deacetylase 3/Nuclear receptor corepressor 2 [395-498] (O15379 whole entry): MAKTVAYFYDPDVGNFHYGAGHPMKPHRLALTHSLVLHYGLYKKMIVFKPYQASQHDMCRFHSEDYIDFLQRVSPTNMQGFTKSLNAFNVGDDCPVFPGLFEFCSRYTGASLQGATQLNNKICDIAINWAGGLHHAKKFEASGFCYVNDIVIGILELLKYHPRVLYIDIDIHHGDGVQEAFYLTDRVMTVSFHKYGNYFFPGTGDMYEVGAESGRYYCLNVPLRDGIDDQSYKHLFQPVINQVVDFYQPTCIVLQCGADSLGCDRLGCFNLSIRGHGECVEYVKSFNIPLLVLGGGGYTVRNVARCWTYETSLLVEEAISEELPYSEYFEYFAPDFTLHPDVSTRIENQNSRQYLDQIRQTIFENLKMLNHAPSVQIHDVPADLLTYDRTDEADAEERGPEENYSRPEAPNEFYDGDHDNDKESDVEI
Chain of Histone deacetylase 3/Nuclear receptor corepressor 2 [395-498] (Q9Y618 395-498, further chain): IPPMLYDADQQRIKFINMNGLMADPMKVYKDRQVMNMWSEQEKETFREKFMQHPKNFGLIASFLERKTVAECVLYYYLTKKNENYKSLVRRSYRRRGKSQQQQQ
Chain of Histone deacetylase 2/Nuclear receptor corepressor 2 [395-498] (Q92769 whole entry): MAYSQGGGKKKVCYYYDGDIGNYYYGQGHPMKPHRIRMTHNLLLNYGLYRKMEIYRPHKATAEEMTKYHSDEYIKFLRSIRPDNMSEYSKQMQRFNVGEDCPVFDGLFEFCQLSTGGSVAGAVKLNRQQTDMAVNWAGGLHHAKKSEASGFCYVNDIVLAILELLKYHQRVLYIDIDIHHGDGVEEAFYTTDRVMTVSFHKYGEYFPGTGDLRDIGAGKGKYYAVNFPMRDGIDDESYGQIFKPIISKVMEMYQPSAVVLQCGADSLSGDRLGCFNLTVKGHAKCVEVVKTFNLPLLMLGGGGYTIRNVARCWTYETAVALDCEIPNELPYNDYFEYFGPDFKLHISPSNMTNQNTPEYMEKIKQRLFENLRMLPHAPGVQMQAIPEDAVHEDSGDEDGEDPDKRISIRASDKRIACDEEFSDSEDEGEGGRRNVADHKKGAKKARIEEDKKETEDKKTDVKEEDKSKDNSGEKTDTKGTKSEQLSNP
Chain of Histone deacetylase 2/Nuclear receptor corepressor 2 [395-498] (Q9Y618 395-498, further chain): as the sequence (Q9Y618 395-498, further chain) above
Chain of Histone deacetylase 1/Nuclear receptor corepressor 2 [395-498] (Q13547 whole entry): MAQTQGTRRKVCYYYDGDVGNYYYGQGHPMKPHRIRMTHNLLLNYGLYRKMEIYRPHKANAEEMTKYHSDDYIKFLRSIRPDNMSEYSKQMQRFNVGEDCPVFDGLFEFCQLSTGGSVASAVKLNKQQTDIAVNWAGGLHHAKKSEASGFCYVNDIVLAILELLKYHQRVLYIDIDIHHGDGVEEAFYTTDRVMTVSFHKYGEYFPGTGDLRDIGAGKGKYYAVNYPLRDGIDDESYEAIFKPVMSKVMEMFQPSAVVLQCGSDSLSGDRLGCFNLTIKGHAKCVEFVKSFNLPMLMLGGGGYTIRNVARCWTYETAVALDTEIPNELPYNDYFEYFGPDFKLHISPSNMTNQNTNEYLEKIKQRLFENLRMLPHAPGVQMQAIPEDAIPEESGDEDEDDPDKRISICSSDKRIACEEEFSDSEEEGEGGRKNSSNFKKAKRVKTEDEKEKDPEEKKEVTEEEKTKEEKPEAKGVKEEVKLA
Chain of Histone deacetylase 1/Nuclear receptor corepressor 2 [395-498] (Q9Y618 395-498, further chain): as the sequence (Q9Y618 395-498, further chain) above

| IC50 [1] [µM] | IC50 [2] [µM] | IC50 [3] [µM] | IC50 (Histone deacetylase 6) [µM] | IC50 (Histone deacetylase 8) [µM] | SMILES |
| --- | --- | --- | --- | --- | --- |
| 1.91 | 2.52 | 0.43 |  |  | CCCCNNC(=O)c1ccc(OC)cc1 [SR-3206] |
| 0.23 | 0.88 | 0.12 | 9.57 | 0.72 | CCCCNNC(=O)c1ccc(N(C)C)cc1 [SR-3208] |
| 7.4 | 7.65 | 1.08 |  |  | O=C(NNCCC1CCCC1)c1ccc(Br)cc1 [SR-3297] |
| 1.76 | 3.25 | 1.67 |  |  | CN(C)c1ccc(C(=O)NNCC2CCCC2)cc1 [SR-3298] |
| 8.81 | 28.4 | 6.98 |  |  | O=C(NNCC1CCCC1)c1ccc(Br)cc1 [SR-3364] |
| > 50 | > 50 | > 50 |  |  | O=C(NNCCCC1CCCC1)c1ccc(Br)cc1 [SR-3365] |

Second part, the compound before the results:

| SMILES | IC50 [1] [µM] | IC50 [2] [µM] | IC50 [3] [µM] | IC50 (Histone deacetylase 6) [µM] | IC50 (Histone deacetylase 8) [µM] |
| --- | --- | --- | --- | --- | --- |
| CCCCNNC(=O)c1ccc(F)cc1 [SR-3203] | 13.2 | 15.1 | 1.78 |  |  |
| CCCCNNC(=O)c1ccc(OC(F)(F)F)cc1 [SR-3204] | 8.86 | 9.09 | 1.35 |  |  |
| CCCCNNC(=O)c1ccc(Cl)cc1 [SR-3210] | 3 | 3.8 | 2.5 |  |  |
| CCCCNNC(=O)c1ccc(C(C)(C)C)cc1 [SR-3302] | 0.19 | 1.04 | 0.07 | 6.83 | 0.49 |
| CCCCCCNNC(=O)c1ccc(Br)cc1 [SR-3367] | 10.3 | 16.1 | 20 | 39.1 |  |
| CCCCCNNC(=O)c1ccc(Br)cc1 [SR-3970] | 1.87 | 1.92 | 0.92 | 5.73 | 4.87 |
| CCCCNNC(=O)c1ccc(Br)cc1 [UF010] |  |  |  | 9.09 | 2.83 |
